Test results published in US20110112079A1, “PHOSPHODIESTERASE INHIBITORS” (priority 2008, published 2011).
Entries after “also recorded” stand apart in the source; their conditions may differ. Read-outs that look alike come from different tables or passages of the source.

What was measured:
PDE7A = PDE7A (Homo sapiens, UniProt Q13946); assay: PDE isoform selectivity panel: PDE7A; assay type: biochemical; conditions: PDE7A; 10 μM compound
Procedure: (§1) The potency of these compounds was assessed versus 20 different phosphodiesters (PDEs) using methods described in the foregoing Examples.

PDE1C = PDE1C (Homo sapiens, UniProt Q14123); assay: PDE isoform selectivity panel: PDE1C; assay type: biochemical; conditions: PDE1C; 10 μM compound
PDE7B = PDE7B (Homo sapiens, UniProt Q9NP56); assay: PDE isoform selectivity panel: PDE7B; assay type: biochemical; conditions: PDE7B; 10 μM compound
Procedure: as §1

PDE3A = biological target: T1, PDE3A (Homo sapiens, UniProt Q14432); assay: PDE isoform selectivity panel: PDE3A; assay type: biochemical; conditions: 10 μM compound, read-out: % Inhibition of the Enzyme Activity at 10 μM
T1 construct: purchased BPS Bioscience Inc
Procedure: as §1

PDE5A1 = biological target: T2, PDE5A1 (Homo sapiens, UniProt O76074); assay: PDE isoform selectivity panel: PDE5A1; assay type: biochemical; conditions: PDE5A1; 10 μM compound
T2 construct: purchased BPS Bioscience Inc

[1] = system: PKA reporter Reg-F[1]:Cat-F[2] in β2AR-HEK293 cells; assay: Protein-fragment complementation (Rluc PCA PKA reporter) cell-based assay; conditions: FIG. 4B; 100 μM and 10 μM, 30 min
Procedure: Cell culture: Stable β2AR-HEK293 cells were plated into 96-well white walled microliter plates (Corning) and grown in DMEM (Invitrogen) supplemented with 10% fetal bovine serum. Transient transfections of plasmids harboring the Rluc PCA PKA reporter were performed with FuGENE-6 reagent (Roche).
Rluc activities were monitored for the first 10 seconds after addition of the substrate benzyl-coelenterazine (5 μM, Nanolight).
Protein-fragment Complementation (PCA) cell-based assay. […] To further examine the efficacy of the PDE inhibitors described herein, a reporter enzyme was used—Renilla reniformis luciferase (Rluc), where the N- and C-terminal fragments of Rluc are fused to the catalytic subunits (Cat) and inhibiting regulatory subunits (Reg) of protein kinase A (PKA).

PDE4B1 = biological target: T3, PDE4B1 (Homo sapiens, UniProt Q07343); assay: PDE isoform selectivity panel: PDE4B1; assay type: biochemical
T3 construct: purchased BPS Bioscience Inc
Procedure: as §1

PDE4B2 = biological target: T4, PDE4B2 (Homo sapiens, UniProt Q07343); assay: PDE isoform selectivity panel: PDE4B2; assay type: biochemical
T4 construct: purchased BPS Bioscience Inc

PDE11A4 = PDE11A4 (Homo sapiens, UniProt Q9HCR9); assay: PDE isoform selectivity panel: PDE11A4; assay type: biochemical; conditions: 10 μM compound
Chain of PDE11A4 (Q9HCR9 whole entry, canonical isoform): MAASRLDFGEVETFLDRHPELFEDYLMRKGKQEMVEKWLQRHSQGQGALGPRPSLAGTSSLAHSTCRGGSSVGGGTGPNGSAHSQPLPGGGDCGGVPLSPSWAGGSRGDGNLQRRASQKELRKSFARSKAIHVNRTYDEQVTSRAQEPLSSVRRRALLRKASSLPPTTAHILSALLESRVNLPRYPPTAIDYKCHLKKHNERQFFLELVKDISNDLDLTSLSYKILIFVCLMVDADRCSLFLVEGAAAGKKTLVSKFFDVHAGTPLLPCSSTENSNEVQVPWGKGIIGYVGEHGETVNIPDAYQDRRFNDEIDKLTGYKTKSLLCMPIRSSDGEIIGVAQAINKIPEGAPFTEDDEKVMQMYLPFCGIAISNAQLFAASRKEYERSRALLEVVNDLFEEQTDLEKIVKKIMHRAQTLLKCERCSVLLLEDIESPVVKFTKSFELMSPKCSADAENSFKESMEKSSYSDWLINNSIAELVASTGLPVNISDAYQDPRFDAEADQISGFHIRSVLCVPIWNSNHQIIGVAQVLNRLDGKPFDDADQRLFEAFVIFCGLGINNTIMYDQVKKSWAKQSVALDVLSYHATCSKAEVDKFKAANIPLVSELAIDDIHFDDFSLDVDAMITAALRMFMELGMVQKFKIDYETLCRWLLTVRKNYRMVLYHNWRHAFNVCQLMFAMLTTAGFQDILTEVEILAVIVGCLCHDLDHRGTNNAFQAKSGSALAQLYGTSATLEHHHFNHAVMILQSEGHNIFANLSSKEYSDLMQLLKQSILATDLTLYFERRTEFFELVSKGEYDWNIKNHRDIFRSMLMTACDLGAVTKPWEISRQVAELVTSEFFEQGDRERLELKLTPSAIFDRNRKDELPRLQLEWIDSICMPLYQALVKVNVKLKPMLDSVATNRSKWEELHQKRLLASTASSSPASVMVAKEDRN

PDE2A = PDE2A (Homo sapiens, UniProt O00408); assay: PDE isoform selectivity panel: PDE2A; assay type: biochemical; conditions: PDE2A; 10 μM compound
Procedure: as §1

PDE4A1A [2] = biological target: T5, PDE4A1A (Homo sapiens, UniProt P27815); assay: IMAP fluorescence polarization assay with purified PDE4A1A; assay type: biochemical; set-up: purchased BPS Bioscience; conditions: Table 3; three separate experiments (SD provided); read-out: PDE4A IC50
T5 sequence (P27815 1-647 isoform P27815-4): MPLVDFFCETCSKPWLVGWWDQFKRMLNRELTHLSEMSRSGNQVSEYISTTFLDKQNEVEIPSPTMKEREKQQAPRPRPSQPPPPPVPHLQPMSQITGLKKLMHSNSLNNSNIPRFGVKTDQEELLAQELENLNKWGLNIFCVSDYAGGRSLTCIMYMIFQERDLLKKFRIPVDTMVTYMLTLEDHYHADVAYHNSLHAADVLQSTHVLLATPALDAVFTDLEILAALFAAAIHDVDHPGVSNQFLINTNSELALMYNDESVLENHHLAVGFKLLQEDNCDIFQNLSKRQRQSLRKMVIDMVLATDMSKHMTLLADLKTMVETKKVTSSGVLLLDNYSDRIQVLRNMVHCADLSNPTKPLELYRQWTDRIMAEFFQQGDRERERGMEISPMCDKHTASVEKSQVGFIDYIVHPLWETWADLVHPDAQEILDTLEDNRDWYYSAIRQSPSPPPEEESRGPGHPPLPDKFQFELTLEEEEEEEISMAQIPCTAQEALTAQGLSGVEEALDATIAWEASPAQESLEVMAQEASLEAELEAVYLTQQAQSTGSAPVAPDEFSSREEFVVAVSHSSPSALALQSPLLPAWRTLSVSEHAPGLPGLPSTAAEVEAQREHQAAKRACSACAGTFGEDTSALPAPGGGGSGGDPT
Procedure: Briefly, two microliters of PDE4A1A (0.05 ng/μl PDE4A1A, 10 mM Tris pH 7.2, 0.1% BSA, 10 mM MgCl2, 1 mM DTT, and 0.05% NaN3, final concentration) was dispensed into wells of 1536-well black/solid bottom assay plates (Greiner Bio-One North. America, NC) using a Flying Reagent Dispenser (Aurora Discovery, CA). The plates were centrifuged at 1000 rpm for 30 seconds and then 23 nanoliters of test compound was transferred to the assay plate using a Kalypsys pin tool. After incubation at room temperature for 5 min, 2 μL/well of cAMP (100 nM, final concentration) was dispensed for a final assay volume of 4 μL/well. The plates were centrifuged at 1000 rpm for 30 seconds, incubated for 40 minutes at room temperature, and then 4 microliters of IMAP binding reagent were added to the wells.

PDE8A1 = PDE8A1 (Homo sapiens, UniProt O60658); assay: PDE isoform selectivity panel: PDE8A1; assay type: biochemical; conditions: 10 μM compound
Procedure: as §1

PDE1B = PDE1B (Homo sapiens, UniProt Q01064); assay: PDE isoform selectivity panel: PDE1B; assay type: biochemical; conditions: read-out: % Inhibition of the Enzyme Activity at 10 μM
Chain of PDE1B (Q01064 whole entry, canonical isoform): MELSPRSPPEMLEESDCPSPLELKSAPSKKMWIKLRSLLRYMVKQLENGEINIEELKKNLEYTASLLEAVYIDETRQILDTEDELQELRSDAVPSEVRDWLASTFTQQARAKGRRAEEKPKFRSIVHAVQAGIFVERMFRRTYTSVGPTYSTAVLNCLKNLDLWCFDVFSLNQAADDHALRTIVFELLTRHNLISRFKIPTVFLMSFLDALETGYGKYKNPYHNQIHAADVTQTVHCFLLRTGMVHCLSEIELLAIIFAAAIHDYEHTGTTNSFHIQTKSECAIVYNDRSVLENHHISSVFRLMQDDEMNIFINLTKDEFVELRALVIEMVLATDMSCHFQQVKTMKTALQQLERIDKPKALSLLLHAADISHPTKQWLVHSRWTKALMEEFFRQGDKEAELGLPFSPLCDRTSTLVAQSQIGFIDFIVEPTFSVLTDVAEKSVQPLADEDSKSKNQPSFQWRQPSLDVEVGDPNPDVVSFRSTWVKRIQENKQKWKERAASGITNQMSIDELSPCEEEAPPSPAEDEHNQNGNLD

PDE4 = conditions: read-out: EC50 (concentration at 50% activity); FIG. 3; four separate experiments; normalized to 10 μM 1 response
Procedure: Cyclic nucleotide-gated cation channel assay. The PDE4 cell line (BD Biosciences, Rockville, Md.) assay was conducted as described in reference 18.
A flying reagent dispensing (FRD) workstation (Aurora Discovery, San Diego) was used to dispense cells and reagents to 1536-well plates. The compounds were serially diluted in DMSO in 384-well plates first and reformatted into 1536-well plates at 7 μL/well using a Cybi-well dispensing station with a 384-well head (Cybio, Inc. Woburn, Mass.). A Pintool station was used to transfer 23 nL of compounds in DMSO solution to the 1536-well assay plates. The final DMSO concentration in the assay plates was under 0.5%. During compound library screening, all plate manipulations were done on an automated robotic system (Kalypsys, San Diego, Calif.). 1 was used as the positive control and data was normalized to 10 μM 1 response (100% activity). All samples were tested in duplicate.
Cyclic-nucleotide gated ion channel cell-based assay. The first cell-based analysis of PDE4 activity involved an assay based on the coupling of a constitutively activated G-protein coupled receptor (GPCR) and cyclic-nucleotide gated (CNG) ion channel that are coexpressed in HEK293 cells. […] The read-out for this assay is based on measurement of membrane electrical potential by a potential-sensitive fluorophore (ACTOne™ dye kit). Inhibitors of PDE4 will interfere with the native enzymatic conversion of cAMP to AMP resulting in increased intracellular levels of the cyclic (cAMP) nucleotide due to constitutive activity of the GPCR. In response to increased amounts of cAMP, the CNG ion channel opens resulting in membrane polarization. The dye reacts to this alteration in membrane polarity with an increase in fluorescence detectable by fluorescence spectroscopy of whole cells read on a fluorescence microtiter plate reader.

PDE4C1 = biological target: T6, PDE4C1 (Homo sapiens, UniProt Q08493); assay: PDE isoform selectivity panel: PDE4C1; assay type: biochemical
T6 construct: purchased BPS Bioscience Inc

PDE4A1A [3] = biological target: T5, PDE4A1A
Procedure: as §1

PDE9A2 = biological target: T7, PDE9A2 (Homo sapiens, UniProt O76083); assay: PDE isoform selectivity panel: PDE9A2; assay type: biochemical; conditions: 10 μM compound
T7 construct: purchased BPS Bioscience Inc
T7 sequence (O76083 1-533 isoform O76083-2): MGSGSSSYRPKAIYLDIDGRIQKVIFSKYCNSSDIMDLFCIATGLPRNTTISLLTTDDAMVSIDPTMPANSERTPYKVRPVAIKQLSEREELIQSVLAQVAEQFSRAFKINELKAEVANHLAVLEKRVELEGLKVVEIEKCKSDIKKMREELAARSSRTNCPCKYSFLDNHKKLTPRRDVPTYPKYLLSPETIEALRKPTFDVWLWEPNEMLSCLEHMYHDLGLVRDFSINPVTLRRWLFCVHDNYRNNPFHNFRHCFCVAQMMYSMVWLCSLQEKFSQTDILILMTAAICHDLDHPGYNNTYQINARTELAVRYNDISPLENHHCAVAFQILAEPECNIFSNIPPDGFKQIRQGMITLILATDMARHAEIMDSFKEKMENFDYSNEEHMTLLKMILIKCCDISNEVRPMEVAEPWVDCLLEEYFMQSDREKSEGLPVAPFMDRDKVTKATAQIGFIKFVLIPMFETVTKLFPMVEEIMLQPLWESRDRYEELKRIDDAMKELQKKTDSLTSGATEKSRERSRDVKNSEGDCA

PDE4D2 = biological target: T8, PDE4D2 (Homo sapiens, UniProt Q08499); assay: PDE isoform selectivity panel: PDE4D2; assay type: biochemical
T8 construct: purchased BPS Bioscience Inc

PDE3B = biological target: T9, PDE3B (Homo sapiens, UniProt Q13370); assay: PDE isoform selectivity panel: PDE3B; assay type: biochemical
T9 construct: purchased BPS Bioscience Inc
T9 sequence (Q13370 whole entry, canonical isoform): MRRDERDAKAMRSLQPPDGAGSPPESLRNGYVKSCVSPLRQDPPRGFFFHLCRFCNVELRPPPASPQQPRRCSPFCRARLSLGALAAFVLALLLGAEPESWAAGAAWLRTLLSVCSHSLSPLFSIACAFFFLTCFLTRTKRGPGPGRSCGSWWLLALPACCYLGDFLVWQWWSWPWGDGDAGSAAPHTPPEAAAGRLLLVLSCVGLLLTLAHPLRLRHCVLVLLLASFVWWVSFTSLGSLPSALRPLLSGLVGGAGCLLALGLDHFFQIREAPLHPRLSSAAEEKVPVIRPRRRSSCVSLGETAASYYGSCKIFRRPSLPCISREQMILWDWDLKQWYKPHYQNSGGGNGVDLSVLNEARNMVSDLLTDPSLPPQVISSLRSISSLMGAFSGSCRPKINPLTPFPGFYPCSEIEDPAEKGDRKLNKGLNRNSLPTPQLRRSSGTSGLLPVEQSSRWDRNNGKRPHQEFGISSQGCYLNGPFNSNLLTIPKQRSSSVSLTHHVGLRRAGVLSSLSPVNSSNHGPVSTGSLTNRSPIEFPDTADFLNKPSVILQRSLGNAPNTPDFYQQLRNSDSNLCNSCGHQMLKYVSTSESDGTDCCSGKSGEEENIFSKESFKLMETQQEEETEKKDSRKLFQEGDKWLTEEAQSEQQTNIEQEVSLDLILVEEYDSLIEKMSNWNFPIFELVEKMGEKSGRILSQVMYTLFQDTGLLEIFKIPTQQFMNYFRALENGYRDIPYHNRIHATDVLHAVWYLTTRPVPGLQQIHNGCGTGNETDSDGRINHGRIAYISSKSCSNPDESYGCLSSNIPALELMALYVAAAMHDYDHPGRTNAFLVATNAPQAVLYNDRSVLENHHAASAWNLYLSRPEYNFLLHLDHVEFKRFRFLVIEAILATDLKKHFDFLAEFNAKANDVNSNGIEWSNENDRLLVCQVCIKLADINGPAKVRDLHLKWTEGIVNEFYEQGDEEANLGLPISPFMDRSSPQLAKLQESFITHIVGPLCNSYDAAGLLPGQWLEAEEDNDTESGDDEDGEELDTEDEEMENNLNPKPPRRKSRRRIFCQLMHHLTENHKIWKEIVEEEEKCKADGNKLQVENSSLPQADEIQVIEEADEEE
Procedure: as §1

PDE1A = biological target: T10, PDE1A (Homo sapiens, UniProt P54750); assay: PDE isoform selectivity panel: PDE1A; assay type: biochemical; conditions: 10 μM compound
T10 construct: purchased BPS Bioscience Inc
T10 sequence (P54750 whole entry, canonical isoform): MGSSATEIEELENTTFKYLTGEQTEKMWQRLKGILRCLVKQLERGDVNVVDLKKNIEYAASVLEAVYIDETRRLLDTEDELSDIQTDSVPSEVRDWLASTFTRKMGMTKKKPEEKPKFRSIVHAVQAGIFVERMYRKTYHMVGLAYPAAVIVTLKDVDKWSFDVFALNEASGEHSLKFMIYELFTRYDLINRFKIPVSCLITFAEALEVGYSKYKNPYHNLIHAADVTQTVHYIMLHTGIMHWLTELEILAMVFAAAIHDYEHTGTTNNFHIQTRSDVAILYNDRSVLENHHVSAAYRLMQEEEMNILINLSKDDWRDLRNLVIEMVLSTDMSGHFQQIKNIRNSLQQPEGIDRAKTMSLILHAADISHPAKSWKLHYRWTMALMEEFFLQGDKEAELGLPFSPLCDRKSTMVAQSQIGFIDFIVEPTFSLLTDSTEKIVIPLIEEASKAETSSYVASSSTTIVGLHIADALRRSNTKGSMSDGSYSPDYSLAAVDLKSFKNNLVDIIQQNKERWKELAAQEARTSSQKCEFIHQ

PDE10A1 = biological target: T11, PDE10A1 (Homo sapiens, UniProt Q9Y233); assay: PDE isoform selectivity panel: PDE10A1; assay type: biochemical
T11 construct: purchased BPS Bioscience Inc
T11 sequence (Q9Y233 1-779 isoform Q9Y233-1): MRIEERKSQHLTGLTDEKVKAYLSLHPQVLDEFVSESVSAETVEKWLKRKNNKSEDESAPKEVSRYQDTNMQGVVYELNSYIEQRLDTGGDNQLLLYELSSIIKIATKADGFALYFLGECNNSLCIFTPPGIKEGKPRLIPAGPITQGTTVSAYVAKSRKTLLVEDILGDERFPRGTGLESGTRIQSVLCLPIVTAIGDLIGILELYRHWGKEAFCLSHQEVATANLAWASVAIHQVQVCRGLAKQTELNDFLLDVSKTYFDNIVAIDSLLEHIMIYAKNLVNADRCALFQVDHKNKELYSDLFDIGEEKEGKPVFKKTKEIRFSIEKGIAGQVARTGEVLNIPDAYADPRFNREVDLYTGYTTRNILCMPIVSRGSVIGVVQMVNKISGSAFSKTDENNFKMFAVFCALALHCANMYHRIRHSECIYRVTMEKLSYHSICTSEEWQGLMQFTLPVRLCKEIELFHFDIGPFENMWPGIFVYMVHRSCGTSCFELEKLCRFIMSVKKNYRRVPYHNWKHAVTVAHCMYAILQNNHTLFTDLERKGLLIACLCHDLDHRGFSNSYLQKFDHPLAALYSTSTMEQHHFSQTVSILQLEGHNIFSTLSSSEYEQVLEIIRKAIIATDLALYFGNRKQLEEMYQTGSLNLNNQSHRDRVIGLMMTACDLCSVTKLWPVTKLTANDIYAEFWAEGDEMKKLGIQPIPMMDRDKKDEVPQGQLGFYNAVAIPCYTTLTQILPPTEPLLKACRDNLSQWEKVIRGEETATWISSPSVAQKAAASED

[4] = read-out: % Inhibition of the Enzyme Activity at 10 μM

COc1ccc(OC)c(-c2nnc3n2N=C(c2ccc(OC)c(O[C@@H]4CCOC4)c2)CS3)c1 [Compound 10, (R)-3-(2,5-dimethoxyphenyl)-6-(4-methoxy-3-(tetrahydrofuran-3-yloxy)phenyl)-7H-[1,2,4]-triazolo[3,4-b][1,3,4]thiadiazine]
% Inhibition of the Enzyme Activity at 10 μM (PDE7A): 48%
% Inhibition of the Enzyme Activity at 10 μM (PDE1C): 49%
% Inhibition of the Enzyme Activity at 10 μM (PDE7B): 43%
inhibition at 10 µM (PDE3A): 56%
% Inhibition of the Enzyme Activity at 10 μM (PDE5A1): 58%
effect on luminescence signal (PKA activation) [1]: marked loss of luminescence; also recorded: dose-dependent inhibition
IC50 (PDE4B1): 2.3 nM
IC50 (PDE4B2): 1.6 nM
% Inhibition of the Enzyme Activity at 10 μM (PDE11A4): inactive
inhibition at 10 µM (PDE11A4; [4]): < 26%
% Inhibition of the Enzyme Activity at 10 μM (PDE2A): 68%
IC50 (PDE4A1A [2]): 3 nM
% Inhibition of the Enzyme Activity at 10 μM (PDE8A1): inactive
inhibition at 10 µM (PDE1B): 52%
EC50 (PDE4): 2.3 nM
IC50 (PDE4C1): 46 nM
IC50 (PDE4A1A [3]): Sub-nanomolar potencies
% Inhibition of the Enzyme Activity at 10 μM (PDE9A2): inactive
inhibition at 10 µM (PDE9A2; [4]): < 26%
IC50 (PDE4D2): 1.9 nM
IC50 (PDE3B): 4600 nM
% Inhibition of the Enzyme Activity at 10 μM (PDE1A): 36%
IC50 (PDE10A1): 632 nM
